The source made the active and inactive calls.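 How the source made its calls: active means fold change below 0.65 in a panel strain, matching the primary screen cutoff; inactive means the rest.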
How the values were obtained:
Assay in all cases: GFP reporter expression in transducer deletion yeast, mechanism study for yeast TOR pathway modulator project, S. cerevisiae, transducer mutant strains, GFP-tagged proteins (AID 504481);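 further: 1 = DMSO wells as ratio of mean channel GFP fluorescence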
Settings in all cases: S. cerevisiae transducer mutants, GFP-fusion expression, flow cytometry, 3 h
BY4741 = test system: BY4741
YBR084C-A = test system: YBR084C-A
YNL142W = test system: YNL142W
YKL103C = test system: YKL103C
YCR005C = test system: YCR005C
YCL025C = test system: YCL025C

| Structure (SMILES) | fold change (BY4741) | fold change (YBR084C-A) | fold change (YNL142W) | fold change (YKL103C) | fold change (YCR005C) | fold change (YCL025C) |
| --- | --- | --- | --- | --- | --- | --- |
| O=C(OCC(=O)N1CCN(C(=O)c2ccco2)CC1)c1cc(-c2cccc(Br)c2)nc2ccccc12 | 0.913 (inactive) | 0.779 (inactive) | 1.05 (inactive) | 1.33 (inactive) | 1.29 (inactive) | 1.14 (inactive) |
| COc1ccc([N+](=O)[O-])c(S(=O)(=O)c2ccc(Cl)cc2)n1 | 1.1 (inactive) | 0.841 (inactive) | 1.28 (inactive) | 2.87 | 0.893 (inactive) | 1.31 (inactive) |
| Cn1ncc(S(=O)(=O)Cc2ccccc2)c(Cl)c1=O | 1.33 (inactive) | 0.743 (inactive) | 1.47 (inactive) | 1.83 | 1.24 (inactive) | 1.13 (inactive) |
| Cc1ccc(S(=O)(=O)c2ccc([N+](=O)[O-])cn2)cc1 | 1.05 (inactive) | 0.894 (inactive) | 1.36 (inactive) | 1.65 | 1.62 | 1.17 (inactive) |
| CSC1=NS(=O)(=O)c2c(C)nn(C)c2S1 | 0.902 (inactive) | 0.857 (inactive) | 0.896 (inactive) | 1.3 (inactive) | 0.841 (inactive) | 0.969 (inactive) |
| O=[N+]([O-])c1ccc(S(=O)(=O)c2cccc(C(F)(F)F)c2)nc1 | 1.08 (inactive) | 0.793 (inactive) | 1.26 (inactive) | 1.49 (inactive) | 1.32 (inactive) | 0.901 (inactive) |
| O=C(OCn1ncc(Br)c(Br)c1=O)c1ccc(F)cc1 | 0.946 (inactive) | 1.02 (inactive) | 1.06 (inactive) | 1.76 | 1.68 | 0.996 (inactive) |
| CCOC(=O)c1c(C)oc2c1c(C(c1cccnc1)N1CCOCC1)c(O)c1ccccc12 (centres undefined) | 1.18 (inactive) | 0.759 (inactive) | 1.26 (inactive) | 1.36 (inactive) | 1.27 (inactive) | 0.907 (inactive) |
| O=C(Oc1ccnc2cc(Cl)ccc12)N1CCCCCC1 | 0.878 (inactive) | 1.09 (inactive) | 1.97 | 0.97 (inactive) | 0.6 (inactive) | 1.78 |
| O=[N+]([O-])c1cc(O)c2ncccc2c1 | 0.838 (inactive) | 0.972 (inactive) | 0.761 (inactive) | 1.13 (inactive) | 0.721 (inactive) | 0.835 (inactive) |
| O=C(Oc1c(Cl)cc(Cl)c2cccnc12)c1cccc([N+](=O)[O-])c1 | 0.946 (inactive) | 1.18 (inactive) | 1.08 (inactive) | 1.56 | 1.03 (inactive) | 1.16 (inactive) |
| CCc1ccc(OCC(=O)NNC(=S)NC(=O)C2CC2)c(Br)c1 | 1.54 (inactive) | 1.09 (inactive) | 1.15 (inactive) | 2.4 | 1.17 (inactive) | 1.03 (inactive) |
| COc1ccc([N+](=O)[O-])c(S(=O)(=O)c2ccccc2)n1 | 0.935 (inactive) | 0.944 (inactive) | 0.958 (inactive) | 1.86 | 0.91 (inactive) | 1.08 (inactive) |
| CC(C)(C)C(=O)NC(=S)NNC(=O)c1ccc(-c2ccccc2)cc1 | 1.48 (inactive) | 1.19 (inactive) | 1.46 (inactive) | 2.06 | 1.2 (inactive) | 1.32 (inactive) |
| CCCCC(=O)NNC(=S)NC(=O)c1ccc(C)cc1 | 1.66 (inactive) | 1.27 (inactive) | 1.25 (inactive) | 2.75 | 1.02 (inactive) | 1.12 (inactive) |
| O=S(=O)(CCN(CCS(=O)(=O)C(F)(F)F)CC1CCCO1)C(F)(F)F (centres undefined) | 0.957 (inactive) | 0.989 (inactive) | 0.965 (inactive) | 1.89 | 1.23 (inactive) | 0.948 (inactive) |
| O=C(CCc1ccccc1)NNC(=S)NC(=O)c1ccccc1 | 1.64 (inactive) | 1.22 (inactive) | 1.2 (inactive) | 2.56 | 1.32 (inactive) | 0.995 (inactive) |

| Structure (SMILES) | fold change (BY4741) | fold change (YBR084C-A) | fold change (YNL142W) | fold change (YKL103C) | fold change (YCR005C) | fold change (YCL025C) |
| --- | --- | --- | --- | --- | --- | --- |
| O=[N+]([O-])c1cc(Cl)c2cccnc2c1O | 0.935 (inactive) | 1.05 (inactive) | 1.14 (inactive) | 1.43 (inactive) | 0.922 (inactive) | 1.27 (inactive) |
| Clc1ccc(N=c2ssnc2Cl)cc1 | 1.08 (inactive) | 0.99 (inactive) | 0.957 (inactive) | 1.45 (inactive) | 0.981 (inactive) | 0.846 (inactive) |
| O=C(Oc1c(Cl)cc(Cl)c2cccnc12)c1ccco1 | 1.03 (inactive) | 1.14 (inactive) | 0.881 (inactive) | 1.37 (inactive) | 1.2 (inactive) | 0.784 (inactive) |
| CC1=NN(c2ccccc2)C(=O)C1C(c1ccccc1[N+](=O)[O-])C(C#N)C#N (centres undefined) | 1.12 (inactive) | 1.09 (inactive) | 1.1 (inactive) | 1.82 | 1 (inactive) | 0.965 (inactive) |
| O=[N+]([O-])c1ccc(O)c2ncccc12 | 1.48 (inactive) | 1.19 (inactive) | 1.26 (inactive) | 2.22 | 1.21 (inactive) | 1.47 (inactive) |
| O=C1ON=C(c2ccccc2)/C1=C\c1ccco1 | 0.924 (inactive) | 0.921 (inactive) | 1.13 (inactive) | 1.95 | 1.28 (inactive) | 1 (inactive) |
| Cc1cc(C(=O)Nc2nc(-c3ccccn3)cs2)ccc1[N+](=O)[O-] | 0.913 (inactive) | 0.967 (inactive) | 0.965 (inactive) | 1.01 (inactive) | 0.918 (inactive) | 0.981 (inactive) |
| CN1CCN(C(c2ccc(C(F)(F)F)cc2)c2ccc3cccnc3c2O)CC1 (centres undefined) | 0.87 (inactive) | 0.878 (inactive) | 0.91 (inactive) | 1.35 (inactive) | 0.725 (inactive) | 0.972 (inactive) |
| O=C(OCn1ncc(Br)c(Br)c1=O)c1c(F)cccc1F | 0.865 (inactive) | 0.936 (inactive) | 0.911 (inactive) | 1.31 (inactive) | 1.48 (inactive) | 0.921 (inactive) |
| Cc1ccc(C2=NOC(=O)/C2=C\c2ccc(C)o2)cc1 | 1.8 (inactive) | 0.943 (inactive) | 1.11 (inactive) | 1.2 (inactive) | 1.25 (inactive) | 0.812 (inactive) |
| O=C1ON=C(c2ccccc2)/C1=C/c1ccco1 | 1.32 (inactive) | 1.02 (inactive) | 1.09 (inactive) | 1.37 (inactive) | 1.4 (inactive) | 0.866 (inactive) |
| CC(C)(C)C(=O)C(Cl)C(=O)Nc1ccccc1 (centres undefined) | 1 (inactive) | 0.877 (inactive) | 1.36 (inactive) | 2.24 | 1.44 (inactive) | 1.11 (inactive) |
| CC(=O)c1ccc(N2CCN(C(=O)c3ccc(Br)cc3)CC2)c(F)c1 | 1.31 (inactive) | 1.27 (inactive) | 1.3 (inactive) | 1.69 | 1.72 | 1.22 (inactive) |
| c1ccc(-c2cccc(-c3ccccn3)n2)nc1 | 0.815 (inactive) | 0.903 (inactive) | 0.833 (inactive) | 1.41 (inactive) | 0.73 (inactive) | 0.958 (inactive) |
| CO[C@H]1C[C@@H]2CC[C@@H](C)[C@@](O)(O2)C(=O)C(=O)N2CCCC[C@H]2C(=O)O[C@H]([C@H](C)C[C@@H]2CC[C@@H](O)[C@H](OC)C2)CC(=O)[C@H](C)/C=C(\C)[C@@H](O)[C@@H](OC)C(=O)[C@H](C)C[C@H](C)/C=C/C=C/C=C/1C | 1.12 (inactive) | 0.616 | 12.2 | 2.54 | 3.51 | 2.29 |
| Cc1ccc(S(=O)(=O)c2ncccc2[N+](=O)[O-])cc1 | 1 (inactive) | 0.924 (inactive) | 0.701 (inactive) | 1.33 (inactive) | 0.87 (inactive) | 0.853 (inactive) |
| COc1ccc(/C=C/C(=O)NC(=S)NNC(=O)c2cnccn2)cc1 | 1.19 (inactive) | 0.936 (inactive) | 1.27 (inactive) | 1.51 | 1.05 (inactive) | 1.01 (inactive) |
